Measured values published in ChEMBL document CHEMBL1201862, “PubChem BioAssay data set” (2004).
Calls of active or inactive are those of the source.

What was measured:
[1] = target: T1, Sentrin-specific protease 8 (Homo sapiens, UniProt Q96LD8); assay type: functional
T1 sequence (Q96LD8 whole entry): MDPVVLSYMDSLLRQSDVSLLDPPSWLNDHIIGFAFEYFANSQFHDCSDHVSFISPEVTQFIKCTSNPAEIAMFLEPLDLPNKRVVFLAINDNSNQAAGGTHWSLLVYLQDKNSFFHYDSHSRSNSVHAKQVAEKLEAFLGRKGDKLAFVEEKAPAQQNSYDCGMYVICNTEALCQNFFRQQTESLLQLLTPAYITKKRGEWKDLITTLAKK

[2] = target: T1, Sentrin-specific protease 8; assay type: functional; remark: listed apart in the source
Caspase-3 = target: T2, Caspase-3 (Homo sapiens, UniProt P42574); assay: Dose-response confirmation of uHTS inhibitor hits of Sentrin-Specific Protease 8 in a Caspase-3 Fluorescence assay.; assay type: functional
T2 sequence (P42574 whole entry): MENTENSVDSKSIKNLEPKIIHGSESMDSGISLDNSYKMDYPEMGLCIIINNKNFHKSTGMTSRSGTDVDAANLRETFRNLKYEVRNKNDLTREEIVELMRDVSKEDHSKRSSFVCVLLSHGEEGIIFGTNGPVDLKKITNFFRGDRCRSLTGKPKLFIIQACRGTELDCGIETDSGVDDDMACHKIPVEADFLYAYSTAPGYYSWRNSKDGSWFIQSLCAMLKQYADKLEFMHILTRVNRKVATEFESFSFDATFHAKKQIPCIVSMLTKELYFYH

[3] = Luminescence Cell-Based Dose Retest to Confirm Inhibitors of Cancer Stem Cells. [Related pubchem assays (depositor defined):AID2717, AID2721]; assay type: functional; settings: Homo sapiens
[4] = Counterscreen for […] of the human trace amine associated receptor 1 (TAAR1): Fluorescence-based cell-based high throughput dose response assay to identify nonselective Ga16 agonists.; assay type: functional
[5] = Counterscreen for antagonists of the human trace amine associated receptor 1 (hTAAR1): Fluorescence-based cell-based high throughput dose response assay to identify nonselective Ga16 antagonists.; assay type: functional
Paired box protein Pax-8 = Paired box protein Pax-8 (Homo sapiens, UniProt Q06710); assay: inhibitors of PAX8-driven TPO luciferase reporter, dose response, RMG-I cells, cherry-pick (AID 687027); assay type: functional, cell-based;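 note: luciferase reporter driven by Pax8 target thyroperoxidase promoter measured by SteadyGlo luminescence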
[6] = non-specific cell cytotoxicity, dose response, cytotoxicity control for PAX8 inhibitor project, plate reader, dry powder samples (AID 743021); assay type: functional, cell-based
Beta-lactamase [7] = target: Beta-lactamase (Salmonella choleraesuis (strain SC-B67), UniProt Q5J463); assay: Epi-absorbance-based counterscreen for selective VIM-2 inhibitors: dose response biochemical high throughput screening assay to identify inhibitors of TEM-1 serine-beta-lactamase.
Beta-lactamase [8] = target: T3, Beta-lactamase (Pseudomonas aeruginosa, UniProt Q79MP6); assay: IMP-1 metallo-beta-lactamase inhibitors, dose response, selectivity assay for VIM-2 inhibitor project, biochemical, epi-absorbance (AID 1920)
Beta-lactamase [9] = target: T3, Beta-lactamase; assay: […] counterscreen for selective VIM-2 inhibitors: dose response biochemical high throughput screening assay to identify inhibitors of IMP-1 metallo-beta-lactamase.
[10] = microbe, parasite or virus in culture; assay type: functional; settings: Mycobacterium tuberculosis
Mu-type opioid receptor = Mu-type opioid receptor (Homo sapiens, UniProt P35372); assay type: functional, cell-based;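 note: U2OS cells with beta-arrestin recruitment to OPRM1 by beta-gal complementation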
[11] = target: 5-hydroxytryptamine receptor 2A (Mus musculus, UniProt P35363); assay type: functional, cell-based;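 note: CHO-K1 cells with tagged receptor and beta-arrestin; agonist potency measured as compound-induced activation of the receptor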
[12] = inhibitors of HIV Env-driven cell fusion, dose response, cherry-pick (AID 652057); assay type: functional, cell-based
[13] = CEM21 lymphoblast cell cytotoxicity, dose response, cytotoxicity control for viral fusion inhibitor project, CellTiter-Glo luminescence, cherry-picked (AID 652042); assay type: functional, cell-based;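 note: potency for signal decrease meaning cytotoxicity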
[14] = ZM109 Env clade C HIV-1 fusion inhibitors, dose response, HeLa effector, CEM target cells, luciferase, cherry-pick (AID 652058); assay type: functional, cell-based
[15] = off-target signal loss in HeLa-CEM21 co-culture – HeLa F-luc CTL cells, cherry-picked, counter-screen for HIV-1 Env fusion inhibitor project, dose response (AID 652040); assay type: functional, cell-based;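 note: potency for signal decrease marking cytotoxic or nonspecific inhibition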
[16] = inhibitors of clade B AD8 Env fusion, dose response, cell-based, cherry-pick (AID 652062); assay type: functional;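 note: luciferase signal from cell-cell fusion driven by HIV-1 clade B AD8 Env; potency is for inhibitors of fusion seen as a drop in luminescence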
Escherichia coli [17] = assay: microbe, parasite or virus in culture
Escherichia coli [18] = assay: microbe, parasite or virus in culture; remark: listed apart in the source
[19] = A cytotoxicity screen of small molecule inhibitors of the PhoP region in Salmonella typhi identified in the primary screen. [Related pubchem assays: 1850, 1864, 1985 ]; assay type: functional
Vero = assay: Vero cell toxicity, dose response, cytotoxicity control, plate reader, cherry-pick samples (AID 687020); assay type: functional, cell-based; settings: Chlorocebus sabaeus
[20] = target: Fructose-bisphosphate aldolase (Mycobacterium tuberculosis, UniProt P9WQA3); assay: Fluorescence-based biochemical high throughput dose response assay for inhibitors of the fructose-bisphosphate aldolase (FBA) of M. tuberculosis.; assay type: functional
[21] = target: T4, Replicative DNA helicase DnaB (Mycobacterium tuberculosis, UniProt P9WMR3); assay: DnaB intein splicing inhibitors, dose response, biochemical, cell-free fluorescence (AID 449749); assay type: functional
T4 sequence (P9WMR3 whole entry): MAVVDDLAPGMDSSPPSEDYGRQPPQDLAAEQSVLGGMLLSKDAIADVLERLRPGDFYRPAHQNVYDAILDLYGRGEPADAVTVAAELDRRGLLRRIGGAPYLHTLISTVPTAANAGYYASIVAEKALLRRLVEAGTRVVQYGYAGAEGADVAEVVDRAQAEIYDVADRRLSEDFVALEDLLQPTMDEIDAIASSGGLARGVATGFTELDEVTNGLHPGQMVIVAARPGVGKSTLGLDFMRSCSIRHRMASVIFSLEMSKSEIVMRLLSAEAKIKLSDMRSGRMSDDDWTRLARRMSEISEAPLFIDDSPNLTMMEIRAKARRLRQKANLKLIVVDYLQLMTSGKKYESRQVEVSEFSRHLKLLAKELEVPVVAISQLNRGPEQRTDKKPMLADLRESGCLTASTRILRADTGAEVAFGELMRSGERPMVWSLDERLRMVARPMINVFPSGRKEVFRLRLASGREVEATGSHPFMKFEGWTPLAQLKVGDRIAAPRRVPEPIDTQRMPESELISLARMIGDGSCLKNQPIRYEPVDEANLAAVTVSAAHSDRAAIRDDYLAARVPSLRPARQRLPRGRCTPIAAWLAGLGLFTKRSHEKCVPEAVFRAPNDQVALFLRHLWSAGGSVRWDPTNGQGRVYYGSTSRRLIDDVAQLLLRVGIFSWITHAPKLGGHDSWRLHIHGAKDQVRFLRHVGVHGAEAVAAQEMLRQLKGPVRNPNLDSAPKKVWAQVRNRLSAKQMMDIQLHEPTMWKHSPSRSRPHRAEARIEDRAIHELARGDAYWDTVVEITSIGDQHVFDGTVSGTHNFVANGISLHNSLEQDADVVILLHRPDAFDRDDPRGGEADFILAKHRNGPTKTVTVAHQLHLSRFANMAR

[22] = target: T5, Apoptotic protease-activating factor 1 (Homo sapiens, UniProt O14727); assay type: functional
T5 sequence (O14727 whole entry): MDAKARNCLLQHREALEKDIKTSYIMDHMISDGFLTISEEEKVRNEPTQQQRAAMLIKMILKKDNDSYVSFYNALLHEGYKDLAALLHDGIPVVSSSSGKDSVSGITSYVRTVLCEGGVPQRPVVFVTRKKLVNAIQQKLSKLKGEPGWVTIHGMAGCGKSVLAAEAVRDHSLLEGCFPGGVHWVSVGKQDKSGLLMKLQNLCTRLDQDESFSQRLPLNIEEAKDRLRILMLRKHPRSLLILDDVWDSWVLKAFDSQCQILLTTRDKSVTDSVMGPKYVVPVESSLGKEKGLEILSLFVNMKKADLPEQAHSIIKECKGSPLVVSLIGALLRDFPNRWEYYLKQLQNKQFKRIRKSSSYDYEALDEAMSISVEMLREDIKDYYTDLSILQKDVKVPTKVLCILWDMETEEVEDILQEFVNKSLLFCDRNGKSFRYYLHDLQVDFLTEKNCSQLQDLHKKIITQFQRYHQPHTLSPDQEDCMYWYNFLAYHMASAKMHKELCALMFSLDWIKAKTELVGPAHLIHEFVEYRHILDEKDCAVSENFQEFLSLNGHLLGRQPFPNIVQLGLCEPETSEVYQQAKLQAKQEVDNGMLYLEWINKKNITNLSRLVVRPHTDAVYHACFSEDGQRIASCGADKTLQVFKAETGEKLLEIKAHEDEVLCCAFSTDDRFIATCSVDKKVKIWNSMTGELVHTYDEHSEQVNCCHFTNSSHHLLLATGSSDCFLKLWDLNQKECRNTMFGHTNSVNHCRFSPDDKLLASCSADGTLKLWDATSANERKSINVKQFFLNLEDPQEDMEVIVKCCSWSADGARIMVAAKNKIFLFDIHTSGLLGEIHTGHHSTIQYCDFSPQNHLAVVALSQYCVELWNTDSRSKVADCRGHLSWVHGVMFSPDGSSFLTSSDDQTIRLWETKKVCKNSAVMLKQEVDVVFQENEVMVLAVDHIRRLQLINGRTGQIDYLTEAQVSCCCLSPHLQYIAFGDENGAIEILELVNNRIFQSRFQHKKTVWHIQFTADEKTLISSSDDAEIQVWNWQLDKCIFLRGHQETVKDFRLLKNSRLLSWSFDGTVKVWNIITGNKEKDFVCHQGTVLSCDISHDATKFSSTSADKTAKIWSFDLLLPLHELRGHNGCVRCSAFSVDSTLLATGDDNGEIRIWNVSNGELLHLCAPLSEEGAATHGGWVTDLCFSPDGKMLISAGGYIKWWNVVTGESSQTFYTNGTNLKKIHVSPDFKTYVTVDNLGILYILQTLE

Protein RecA = target: T6, Protein RecA (Mycobacterium tuberculosis, UniProt P9WHJ3); assay: Fluorescence Cell-Free Homogeneous Dose Retest to Identify Inhibitors of RecA-Intein Splicing Activity. [Related pubchem assays (depositor defined):AID2097, AID2223, AID489010, AID492950]; assay type: functional
T6 sequence (P9WHJ3 whole entry): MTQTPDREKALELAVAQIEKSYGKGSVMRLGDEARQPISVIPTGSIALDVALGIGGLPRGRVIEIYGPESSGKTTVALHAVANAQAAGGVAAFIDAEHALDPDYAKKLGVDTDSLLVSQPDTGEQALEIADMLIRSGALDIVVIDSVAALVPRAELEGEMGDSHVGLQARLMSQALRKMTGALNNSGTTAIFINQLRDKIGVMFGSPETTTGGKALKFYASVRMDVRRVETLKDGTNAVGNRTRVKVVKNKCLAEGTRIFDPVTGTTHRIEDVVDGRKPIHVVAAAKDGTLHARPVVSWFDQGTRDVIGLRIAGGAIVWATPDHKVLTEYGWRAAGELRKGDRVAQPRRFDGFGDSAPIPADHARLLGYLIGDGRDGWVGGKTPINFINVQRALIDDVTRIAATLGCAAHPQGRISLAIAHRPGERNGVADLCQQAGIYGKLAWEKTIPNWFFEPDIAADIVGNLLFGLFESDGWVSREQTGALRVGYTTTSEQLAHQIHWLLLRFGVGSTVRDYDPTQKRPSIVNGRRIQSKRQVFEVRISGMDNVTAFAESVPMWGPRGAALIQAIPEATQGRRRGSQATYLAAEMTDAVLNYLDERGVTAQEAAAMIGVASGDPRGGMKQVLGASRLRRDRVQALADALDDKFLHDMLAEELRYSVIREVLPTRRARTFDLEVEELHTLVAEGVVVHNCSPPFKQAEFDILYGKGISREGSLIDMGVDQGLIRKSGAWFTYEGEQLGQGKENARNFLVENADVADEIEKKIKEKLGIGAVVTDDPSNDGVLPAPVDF

[23] = target: Arf-GAP with SH3 domain, ANK repeat and PH domain-containing protein 1 (Homo sapiens, UniProt Q9ULH1); assay type: functional;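 note: biochemical fluorescence polarization dose–response screen measuring inhibition of ASAP1; ASAP1 GAP domain stimulating GTP hydrolysis by truncated human ARF1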
[24] = target: T7, Tyrosyl-DNA phosphodiesterase 2 (Homo sapiens, UniProt O95551); assay: human TDP2 enzyme inhibitors, dose response, biochemical, epi absorbance, IC50 (AID 743297)
T7 sequence (O95551 whole entry): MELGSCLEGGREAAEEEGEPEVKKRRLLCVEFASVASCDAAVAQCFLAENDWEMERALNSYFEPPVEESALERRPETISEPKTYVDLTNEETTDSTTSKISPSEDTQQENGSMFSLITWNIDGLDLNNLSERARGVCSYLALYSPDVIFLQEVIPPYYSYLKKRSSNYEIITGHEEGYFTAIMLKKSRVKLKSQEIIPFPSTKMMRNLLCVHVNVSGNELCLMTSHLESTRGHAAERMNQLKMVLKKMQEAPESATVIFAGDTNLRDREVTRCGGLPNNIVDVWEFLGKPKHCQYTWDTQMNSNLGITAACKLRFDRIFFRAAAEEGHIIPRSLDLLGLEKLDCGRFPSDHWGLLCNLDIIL

T3 sequence (Q79MP6 whole entry): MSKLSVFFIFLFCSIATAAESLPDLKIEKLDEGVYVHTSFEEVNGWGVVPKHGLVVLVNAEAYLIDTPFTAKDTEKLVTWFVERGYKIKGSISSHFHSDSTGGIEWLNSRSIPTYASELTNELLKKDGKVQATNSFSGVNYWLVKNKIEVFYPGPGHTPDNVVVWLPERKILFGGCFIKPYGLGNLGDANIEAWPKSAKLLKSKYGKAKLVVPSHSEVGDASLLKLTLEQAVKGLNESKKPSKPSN
Chain of Paired box protein Pax-8 (Q06710 whole entry): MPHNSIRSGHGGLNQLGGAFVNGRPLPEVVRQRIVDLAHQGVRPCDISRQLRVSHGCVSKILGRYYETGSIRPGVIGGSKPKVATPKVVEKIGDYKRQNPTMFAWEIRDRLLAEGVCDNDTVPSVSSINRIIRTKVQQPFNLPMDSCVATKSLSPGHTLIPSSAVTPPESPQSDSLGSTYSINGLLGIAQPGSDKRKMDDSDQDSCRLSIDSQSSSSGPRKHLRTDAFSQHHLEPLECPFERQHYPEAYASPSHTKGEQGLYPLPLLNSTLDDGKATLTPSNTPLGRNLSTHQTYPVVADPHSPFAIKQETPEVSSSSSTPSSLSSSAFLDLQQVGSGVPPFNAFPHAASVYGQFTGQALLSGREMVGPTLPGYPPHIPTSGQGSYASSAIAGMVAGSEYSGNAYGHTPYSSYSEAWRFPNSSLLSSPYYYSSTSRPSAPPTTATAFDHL
Chain of Fructose-bisphosphate aldolase (P9WQA3 whole entry): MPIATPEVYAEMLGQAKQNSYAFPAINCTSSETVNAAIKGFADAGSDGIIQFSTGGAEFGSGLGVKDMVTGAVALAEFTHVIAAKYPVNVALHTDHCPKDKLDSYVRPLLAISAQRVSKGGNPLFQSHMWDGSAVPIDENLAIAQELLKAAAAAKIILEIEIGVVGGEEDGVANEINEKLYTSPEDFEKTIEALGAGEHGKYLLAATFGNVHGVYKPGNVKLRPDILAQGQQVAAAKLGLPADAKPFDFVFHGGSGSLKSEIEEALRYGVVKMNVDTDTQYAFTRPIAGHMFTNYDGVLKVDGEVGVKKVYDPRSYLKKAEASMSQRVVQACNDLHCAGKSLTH
Chain of Mu-type opioid receptor (P35372 whole entry): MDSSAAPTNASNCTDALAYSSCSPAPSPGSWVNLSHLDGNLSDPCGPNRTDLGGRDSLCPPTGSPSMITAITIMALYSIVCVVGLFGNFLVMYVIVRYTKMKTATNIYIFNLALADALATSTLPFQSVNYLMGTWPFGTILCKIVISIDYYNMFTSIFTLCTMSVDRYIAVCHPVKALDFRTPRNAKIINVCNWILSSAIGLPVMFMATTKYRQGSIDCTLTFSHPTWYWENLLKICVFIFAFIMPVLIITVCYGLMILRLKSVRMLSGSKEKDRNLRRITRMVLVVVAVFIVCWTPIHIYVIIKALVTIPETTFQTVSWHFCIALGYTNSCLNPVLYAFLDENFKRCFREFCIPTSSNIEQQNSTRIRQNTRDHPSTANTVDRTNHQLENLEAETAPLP
Chain of Arf-GAP with SH3 domain, ANK repeat and PH domain-containing protein 1 (Q9ULH1 whole entry, the tested form may be a part): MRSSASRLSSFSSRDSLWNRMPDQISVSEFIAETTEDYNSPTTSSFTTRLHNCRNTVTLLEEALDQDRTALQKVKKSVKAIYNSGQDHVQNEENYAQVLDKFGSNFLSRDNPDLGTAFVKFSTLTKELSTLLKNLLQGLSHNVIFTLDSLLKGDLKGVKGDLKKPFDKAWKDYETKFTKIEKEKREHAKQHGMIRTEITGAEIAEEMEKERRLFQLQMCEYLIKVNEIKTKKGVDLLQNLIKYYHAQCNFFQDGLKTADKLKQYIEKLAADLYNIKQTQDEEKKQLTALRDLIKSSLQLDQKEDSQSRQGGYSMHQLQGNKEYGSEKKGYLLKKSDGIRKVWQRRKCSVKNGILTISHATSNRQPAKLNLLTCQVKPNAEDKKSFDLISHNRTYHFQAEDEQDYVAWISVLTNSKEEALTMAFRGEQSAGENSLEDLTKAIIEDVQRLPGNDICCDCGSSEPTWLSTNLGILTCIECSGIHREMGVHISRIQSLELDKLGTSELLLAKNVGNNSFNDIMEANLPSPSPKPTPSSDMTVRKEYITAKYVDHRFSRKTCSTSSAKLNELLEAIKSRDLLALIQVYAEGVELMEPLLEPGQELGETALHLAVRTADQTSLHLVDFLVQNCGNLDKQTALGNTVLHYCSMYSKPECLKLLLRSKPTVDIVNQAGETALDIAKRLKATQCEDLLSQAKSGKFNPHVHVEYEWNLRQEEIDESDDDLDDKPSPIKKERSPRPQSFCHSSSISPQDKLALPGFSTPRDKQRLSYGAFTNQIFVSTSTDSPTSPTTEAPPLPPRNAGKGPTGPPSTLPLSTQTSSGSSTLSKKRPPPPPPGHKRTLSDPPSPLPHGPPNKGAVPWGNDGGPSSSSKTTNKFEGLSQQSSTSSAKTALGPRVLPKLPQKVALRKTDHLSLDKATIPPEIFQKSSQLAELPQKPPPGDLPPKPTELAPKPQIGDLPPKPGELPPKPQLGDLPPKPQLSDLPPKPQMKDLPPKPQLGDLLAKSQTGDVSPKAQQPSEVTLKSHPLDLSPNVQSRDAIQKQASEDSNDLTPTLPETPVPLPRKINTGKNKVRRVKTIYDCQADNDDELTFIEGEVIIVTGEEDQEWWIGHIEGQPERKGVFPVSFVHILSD
Chain of Beta-lactamase (Salmonella choleraesuis (strain SC-B67), UniProt Q5J463) (Q5J463 whole entry): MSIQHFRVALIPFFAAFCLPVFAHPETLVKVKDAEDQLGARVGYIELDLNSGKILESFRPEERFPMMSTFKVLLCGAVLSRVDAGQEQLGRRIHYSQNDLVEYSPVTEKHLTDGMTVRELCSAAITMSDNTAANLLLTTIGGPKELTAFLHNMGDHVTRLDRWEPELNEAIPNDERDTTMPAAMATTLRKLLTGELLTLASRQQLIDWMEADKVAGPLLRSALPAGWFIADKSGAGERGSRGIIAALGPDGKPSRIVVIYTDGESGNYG
Chain of 5-hydroxytryptamine receptor 2A (P35363 whole entry, the tested form may be a part): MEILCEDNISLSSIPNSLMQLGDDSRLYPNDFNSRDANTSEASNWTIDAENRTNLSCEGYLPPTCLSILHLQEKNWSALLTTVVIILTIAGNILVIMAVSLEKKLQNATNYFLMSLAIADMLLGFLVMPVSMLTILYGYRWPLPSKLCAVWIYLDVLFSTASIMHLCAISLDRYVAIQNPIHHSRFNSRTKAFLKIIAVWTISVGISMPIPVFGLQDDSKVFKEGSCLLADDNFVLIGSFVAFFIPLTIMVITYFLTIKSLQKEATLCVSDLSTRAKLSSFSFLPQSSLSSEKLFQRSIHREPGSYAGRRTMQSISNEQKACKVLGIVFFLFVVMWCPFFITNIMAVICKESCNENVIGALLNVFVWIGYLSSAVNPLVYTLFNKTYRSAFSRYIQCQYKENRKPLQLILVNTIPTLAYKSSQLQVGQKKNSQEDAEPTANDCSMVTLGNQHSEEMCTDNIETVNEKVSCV

Cc1ccc(S(=O)(=O)N2CCOCC2)cc1C(=O)OCC(=O)N1CCc2ccccc2C1
IC50 [1]: 62.2 µM (inactive) | IC50 [2]: 24.4 µM (active) | IC50 (Caspase-3): 92.7 µM (inactive)

Cc1cc(Br)c(OCc2ccc(C(=O)N/N=C/c3ccc[nH]3)cc2)c(Br)c1
AC50 [3]: 0.228 µM (active) | EC50 [4]: > 29.9 µM (inactive) | IC50 [5]: > 29.9 µM (inactive) | AC50 (Paired box protein Pax-8): 0.693 µM (active) | AC50 [6]: 59.4 µM (active)

Cc1c(C)c2c(OCC(=O)N[C@@H](C)C(=O)O)cc3c(c2oc1=O)CCC(C)(C)O3
IC50 (Beta-lactamase [7]): > 59.6 µM (inactive) | IC50 (Beta-lactamase [8]): > 59.6 µM (inactive) | IC50 (Beta-lactamase [9]): > 59.6 µM (inactive)

CN(C)c1ccc(O)c2c1CC1CC3[C@@H](N(C)C)C(=O)C(C(N)=O)C(=O)[C@]3(O)C(=O)C1C2=O (some centres undefined)
CC50 [10]: 29 µM (active) | EC50 (Mu-type opioid receptor): 92.5 µM (inactive) | EC50 [11]: 0.659 µM (active) | AC50 [12]: < 0.26 µM (active) | AC50 [13]: 61.2 µM (active) | AC50 [14]: < 0.26 µM (active) | AC50 [15]: < 0.26 µM (active) | AC50 [16]: < 0.26 µM (active) | AC50 (Escherichia coli [17]): 11.8 µM (active) | AC50 (Escherichia coli [18]): 1.35 µM (active)

O=C(Nc1ccc(Cc2ccncc2)cc1)c1cccs1
EC50 [19]: > 50 µM (active) | AC50 (Vero): 26.3 µM (active)

C=CCn1c(-c2ccc(N)cc2)nc2ccccc21
IC50 [20]: > 0.37 µM (active)

CC(=O)c1cccc(-c2ccc3c(=O)[nH]c(Nc4ccccc4)cc3c2)c1
AC50 [21]: > 380 µM (inactive) | IC50 [22]: 3.02 µM (active) | EC50 (Protein RecA): 2.14 µM (active) | IC50 [23]: 165 µM (inactive) | IC50 [24]: 25.9 µM (inactive)
